Assay results published in patent publication US4855320A, “5-arylalkyl-4-alkoxy-2(5H)-furanones, intermediates and processes for the preparation thereof and medicaments containing them” (Dr. Willmar Schwabe GmbH & Company, priority 1986, dated 1989).

Test system: maximum electroshock spasm (MES) in male mice (NMRI)
Assay: MES test (maximum electroshock spasm), inhibition of the extensor spasm
Format: in vivo
Details: Mus musculus, mice; for responders at 100 mg/kg: 100 mg/kg p.o., % of animals protected 100% against the extensor spasm; for ED50: oral, 1 hour after administration, read-out: ED 50 in the MES test
[1] = po, 1 hr., read-out: protective action after 1 hr. (MES test)

Structure (SMILES) | responders at 100 mg/kg [1] | ED50 | other results
CCOC1=CC(=O)O[C@H]1[C@H](O)c1ccccc1Cl (relative stereo) [Example 66, threo-5-(2-chlorophenylhydroxymethyl)-4-ethoxy-2(5H)-furanone] | 100% | – | –
COC1=CC(=O)O[C@H]1[C@H](O)c1ccc(Cl)cc1 (relative stereo) [Example 67, threo-5-(4-chlorophenylhydroxymethyl)-4-methoxy-2(5H)-furanone] | 75% | 73.5 mg/kg | –
COC1=CC(=O)O[C@H]1[C@H](O)c1ccccc1Br (relative stereo) [Example 68, threo-5-(2-bromophenylhydroxymethyl)-4-methoxy-2(5H)-furanone] | 100% | 23.5 mg/kg | –
COC1=CC(=O)O[C@H]1[C@H](O)c1cccc(Br)c1 (relative stereo) [Example 69, threo-5-(3-bromophenylhydroxymethyl)-4-methoxy-2(5H)-furanone] | 70% | 93 mg/kg | –
COC1=CC(=O)O[C@H]1[C@H](O)c1ccccc1F (relative stereo) [Example 70, threo-5-(2-fluorophenylhydroxymethyl)-4-methoxy-2(5H)-furanone] | 100% | 22 mg/kg | –
COC1=CC(=O)O[C@H]1[C@H](O)c1ccccc1C(F)(F)F (relative stereo) [Example 71, threo-4-methoxy-5-(2-trifluoromethylphenylhydroxymethyl)-2-(5H)-furanone] | 100% | – | –
COC1=CC(=O)O[C@H]1[C@H](O)c1cccc(C(F)(F)F)c1 (relative stereo) [Example 72, threo-4-methoxy-5-(3-trifluoromethylphenylhydroxymethyl)-2(5H)-furanone] | 80% | – | –
COC1=CC(=O)O[C@H]1[C@H](O)c1ccc(C(F)(F)F)cc1 (relative stereo) [Example 73, threo-4-methoxy-5-(4-trifluoromethylphenylhydroxymethyl)-2(5H)-furanone] | 60% | – | –
COC1=CC(=O)O[C@H]1[C@H](O)c1ccccc1[N+](=O)[O-] (relative stereo) [Example 74, threo-4-methoxy-5-(2-nitrophenylhydroxymethyl)-2(5H)-furanone] | 100% | – | –
CCOC1=CC(=O)O[C@H]1[C@H](O)c1ccc(Cl)cc1Cl (relative stereo) [Example 80, threo-5-(2,4-dichlorophenylhydroxymethyl)-4-ethoxy-2(5H)-furanone] | 90% | – | –
CCOC1=CC(=O)O[C@H]1[C@H](O)c1cc(Cl)ccc1Cl (relative stereo) [Example 82, threo-5-(2,5-dichlorophenylhydroxymethyl)-4-ethoxy-2(5H)-furanone] | – | – | responders at 150 mg/kg (po, 150 mg/kg p.o., 1 hr., read-out: protective action after 1 hr. (MES test)): 90%
COC1=CC(=O)O[C@H]1[C@H](O)c1ccc(Cl)c(Cl)c1 (relative stereo) [Example 83, threo-5-(3,4-dichlorophenylhydroxymethyl)-4-methoxy-2(5H)-furanone] | 50% | – | –
COC1=CC(=O)O[C@H]1[C@H](O)c1cc(Cl)cc(Cl)c1 (relative stereo) [Example 84, threo-5-(3,5-dichlorophenylhydroxymethyl)-4-methoxy-2(5H)-furanone] | 70% | – | –
COC1=CC(=O)O[C@H]1[C@H](O)c1cc(C(F)(F)F)ccc1Cl (relative stereo) [Example 86] | – | – | responders at 50 mg/kg (po, 50 mg/kg p.o., 1 hr., read-out: protective action after 1 hr. (MES test)): 100%
COC1=CC(=O)O[C@H]1[C@H](O)c1ccc(Cl)cc1C(F)(F)F (relative stereo) [Example 87, threo-5-[(4-chloro-2-trifluoromethylphenyl)-hydroxymethyl]-4-methoxy-2(5H)-furanone] | 40% | – | –
COC1=CC(=O)O[C@H]1[C@H](O)c1ccc(Br)cc1Cl (relative stereo) [Example 88, threo-5-[(4-bromo-2-chlorophenyl)-hydroxymethyl]-4-methoxy-2(5H)-furanone] | 80% | – | –
COC1=CC(=O)O[C@@]1(C)[C@H](O)c1ccccc1Cl (relative stereo) [Example 89, threo-5-(2-Chlorophenylhydroxymethyl)-4-methoxy-5-methyl-2(5H)-furanone] | 100% | – | –
COC1=CC(=O)O[C@H]1[C@H](O)c1ccccc1C (relative stereo) [Example 93, threo-4-methoxy-5-(2-methylphenylhydroxymethyl)-2(5H)-furanone] | 37.5% | – | –
COC1=CC(=O)O[C@H]1[C@H](O)c1cccc(F)c1 (relative stereo) [Example 96, threo-5-(3-fluorophenylhydroxymethyl)-4-methoxy-2-(5H)-furanone] | 62.5% | 74 mg/kg | –
COC1=CC(=O)O[C@H]1[C@H](O)c1cccc(Cl)c1 (relative stereo) [Example 98, threo-5-(3-chlorophenylhydroxymethyl)-4-methoxy-2(5H)-furanone] | 25% | 84.5 mg/kg | –
CCCOC1=CC(=O)O[C@H]1[C@H](O)c1ccccc1Cl (relative stereo) [Example 99, threo-5-(2-chlorophenylhydroxymethyl)-4-propoxy-2-(5H)-furanone] | 90% | – | –
COC1=CC(=O)O[C@H]1[C@H](O)c1ccc(Br)cc1 (relative stereo) [Example 100, threo-5-(4-bromophenylhydroxymethyl)-4-methoxy-2(5H)-furanone] | 100% | 67 mg/kg | –
COC1=CC(=O)O[C@H]1[C@H](O)c1c(F)cccc1Cl (relative stereo) [Example 102, threo-5-(2-chloro-6-fluorophenylhydroxymethyl)-4-methoxy-2(5H)-furanone] | 62.5% | – | –
COC1=CC(=O)O[C@H]1[C@H](O)c1c(Cl)cccc1Cl (relative stereo) [Example 103, threo-5-(2,6-dichlorophenylhydroxymethiyl)-4-methoxy-2(5H)-furanone] | 100% | 37 mg/kg | –
COC1=CC(=O)O[C@H]1[C@H](O)CCc1ccccc1 (relative stereo) [Example 105, threo-4-methoxy-5-(α-hydroxy-γ-phenylpropyl)-2(5H)-furanone] | 12.5% | – | –
CCOC1=CC(=O)O[C@H]1[C@H](OC)c1ccc(Cl)cc1Cl (relative stereo) [Example 106, threo-4-Ethoxy-5-[methoxy-(2,4-dichlorophenyl)-methyl]-2(5H)-furanone] | 30% | – | –
COCO[C@H](c1ccccc1Cl)[C@@H]1OC(=O)C=C1OC (relative stereo) [Example 107, threo-4-Methoxy-5-[methoxymethoxy-(2-chlorophenyl)-methyl]-2(5H)-furanone] | 100% | 24.5 mg/kg | –
COCCOCO[C@H](c1ccccc1Cl)[C@@H]1OC(=O)C=C1OC (relative stereo) [Example 108, threo-4-Methoxy-5-[methoxyethoxymethoxy-(2-chlorophenyl)-methyl]-2(5H)-furanone] | 70% | – | –
COC1=CC(=O)O[C@H]1[C@H](OC)c1ccccc1 (relative stereo) [Example 109, threo-4-methoxy-5-[methoxy-(phenyl)-methyl]-2(5H)-furanone] | 40% | – | –
COC1=CC(=O)O[C@H]1[C@H](OC)c1ccccc1Cl (relative stereo) [Example 110, threo-4-methoxy-5-[methoxy-(2-chlorophenyl)-methyl]-2(5H)-furanone] | 100% | 27.5 mg/kg | –
